Test results published in patent publication US6737383B1, “Herbicidal oxadiazolidines” (priority 1999, dated 2004).

Legend:
bermuda-grass = experiment: Test D bermudagrass; format: in vivo, Cynodon dactylon; conditions: Postemergence, 0 to 100 scale
common groundsel = experiment: Test D common groundsel; format: in vivo, Senecio vulgaris; conditions: Postemergence, 0 to 100 scale
purple nutsedge = experiment: Test D purple nutsedge; format: in vivo, Cyperus rotundus; conditions: Postemergence, 0 to 100 scale; for Purple nutsedge plant response rating: 0 no injury, 100 complete control
sandbur = experiment: Test D sandbur; format: in vivo, Cenchrus echinatus; conditions: Postemergence, 0 to 100 scale; for Sandbur plant response rating: 0 no injury, 100 complete control
tall mallow = experiment: Test D tall mallow; format: in vivo, Malva sylvestris; conditions: Postemergence, 0 to 100 scale; for Tall Mallow plant response rating: 0 no injury, 100 complete control
blackgrass = experiment: Test E blackgrass; format: in vivo, Alopecurus myosuroides; conditions: Postemergence
Procedure, shortened: (§1)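 Visual evaluation versus untreated controls after about 21 to 28 days in the greenhouse. Compound was in a surfactant-containing non-phytotoxic solvent; postemergence plants were treated at the 1- to 4-leaf stage, grown in a 60:40 sandy loam and potting mix blend.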

chickweed [1] = experiment: Test E chickweed; format: in vivo, Stellaria media; conditions: Postemergence
Procedure, shortened: as §1

redroot pigweed [2] = experiment: Test E redroot pigweed; format: in vivo, Amaranthus retroflexus; conditions: Postemergence
Procedure, shortened: as §1

sugar beet = experiment: Test E sugar beet; format: in vivo, Beta vulgaris; conditions: Postemergence
Protocol: (§2) Compounds evaluated in this test were formulated in a non-phytotoxic solvent mixture which included a surfactant and applied to plants that were in the 1- to 4-leaf stage (postemergence application). A mixture of sandy loam soil and greenhouse potting mix in a 60:40 ratio was used for the postemergence test.
(§3) Plantings of these crops and weed species were adjusted to produce plants of appropriate size for the postemergence test. All plant species were grown using normal greenhouse practices. Crop and weed species include annual bluegrass (Poa annua), blackgrass (Alopecurus myosuroides), black nightshade (Solanum nigra), chickweed (Stellaria media), common poppy (Papaver rhoeas), deadnettle (Lamium amplexicaule), downy brome (Bromus tectorum), field violet (Viola arvensis), galium (Galium aparine), green foxtail (Setaria viridis), Italian ryegrass (Lolium multiflorum), jointed goatgrass (Aegilops cylindrica), kochia (Kochia scoparia), lambsquarters (Chenopodium album), littleseed canarygrass (Phalaris minor), rape (Brassica napus), redroot pigweed (Amaranthus retroflexus), Russian thistle (Salsola kali), scentless chamomile (Matricaria inodora), spring barley (Hordeum vulgare), sugar beet (Beta vulgaris), sunflower (Helianthus annuus), ivyleaf speedwell (Veronica hederaefolia), spring wheat (Triticum aestivum), winter wheat (Triticum aestivum), wild buckwheat (Polygonum convolvulus), wild mustard (Sinapis arvensis), wild oat (Avena fatua), windgrass (Apera spica-venti) and winter barley (Hordeum vulgare).
(§4) Treated plants and untreated controls were maintained in a greenhouse for approximately 21 to 28 days, after which all treated plants were compared to untreated controls and visually evaluated. […] A dash response (-) means no test result.

sunflower = experiment: Test E sunflower; format: in vivo, Helianthus annuus; conditions: Postemergence
Protocol: as §3, with “Plantings of these crops and weed species were adjusted to produce plants of appropriate size for the postemergence test.” left out
as §4

ivyleaf speedwell = experiment: Test E postemergence ivyleaf speedwell; format: in vivo, Veronica hederaefolia
Protocol: as §2, §3, §4

wild mustard = experiment: Test E wild mustard; format: in vivo, Sinapis arvensis; conditions: Postemergence
Protocol: […] A mixture of sandy loam soil and greenhouse potting mix in a 60:40 ratio was used for the postemergence test.
as §3, §4

wild oat = experiment: Test E wild oat; format: in vivo, Avena fatua; conditions: Postemergence
Procedure, shortened: as §1

chickweed [3] = experiment: Test E chickweed; format: in vivo, Stellaria media; conditions: Preemergence
kochia = experiment: Test E kochia; format: in vivo, Kochia scoparia; conditions: Preemergence
lambsquarters = experiment: Test E lambsquarters; format: in vivo, Chenopodium album; conditions: Preemergence
redroot pigweed [4] = experiment: Test E redroot pigweed; format: in vivo, Amaranthus retroflexus; conditions: Preemergence
scentless chamomile = experiment: Test E scentless chamomile; format: in vivo, Matricaria inodora; conditions: Preemergence
spring barley = experiment: Test E spring barley; format: in vivo, Hordeum vulgare; conditions: Preemergence
spring wheat = experiment: Test E spring wheat; format: in vivo, Triticum aestivum; conditions: Preemergence
[5] = Rate 64 g/ha, 0 no injury, 100 complete control
[6] = Rate 125 g/ha, 0 no injury, 100 complete control
[7] = Rate 500 g/ha, 0 to 100 scale, 0 no effect, 100 complete control
[8] = Rate 250 g/ha, 0 to 100 scale where 0 is no effect and 100 is complete control
[9] = Rate 125 g/ha, 0 to 100 scale (0 no effect, 100 complete control)
[10] = Rate 500 g/ha, 0 to 100 scale where 0 is no effect and 100 is complete control
[11] = Rate 250 g/ha, 0 to 100 scale (0 no effect, 100 complete control)

Compound: CC(C)N(C(=O)n1oc(=O)n(C2CC2)c1=O)c1ccc(F)cc1F [Compound 299]
- Plant response rating, Bermudagrass (bermuda-grass; [5]): 90
- Plant response rating, Bermudagrass (bermuda-grass; [6]): 100
- Plant response rating, Bermudagrass (bermuda-grass; Rate 250 g/ha): 100
- Plant response rating, Bermudagrass (bermuda-grass; Rate 500 g/ha): 100
- Plant response rating, Com. groundsel (common groundsel; [5]): 100
- Plant response rating, Com. groundsel (common groundsel; [6]): 100
- Plant response rating, Com. groundsel (common groundsel; Rate 250 g/ha): 100
- Plant response rating, Com. groundsel (common groundsel; Rate 500 g/ha): 100
- Purple nutsedge plant response rating (purple nutsedge; Rate 64 g/ha): 0
- Purple nutsedge plant response rating (purple nutsedge; Rate 125 g/ha): 0
- Plant response rating, Purple nutsedge (purple nutsedge; Rate 250 g/ha): 0
- Plant response rating, Purple nutsedge (purple nutsedge; Rate 500 g/ha): 100
- Sandbur plant response rating (sandbur; Rate 64 g/ha): 90
- Sandbur plant response rating (sandbur; Rate 125 g/ha): 100
- Plant response rating, Sandbur (sandbur; Rate 250 g/ha): 100
- Plant response rating, Sandbur (sandbur; Rate 500 g/ha): 100
- Tall Mallow plant response rating (tall mallow; Rate 64 g/ha): 30
- Tall Mallow plant response rating (tall mallow; Rate 125 g/ha): 90
- Plant response rating, Tall Mallow (tall mallow; Rate 250 g/ha): 70
- Plant response rating, Tall Mallow (tall mallow; Rate 500 g/ha): 100

Compound: C=CCn1c(=O)on(C(=O)N(c2ccc(F)cc2)C(C)C)c1=O [Compound 146]
- Plant response rating, Blackgrass (blackgrass; Rate 62 g/ha, 0 to 100 scale): 70
- Plant response rating, Blackgrass (blackgrass; Rate 125 g/ha, 0 to 100 scale): 25
- Plant response rating, Blackgrass (blackgrass; [7]): 40
- Blackgrass plant response rating (blackgrass; [8]): 15
- Plant response rating, Chickweed (chickweed [1]; Rate 62 g/ha, 0 to 100 scale): 30
- Plant response rating, Chickweed (chickweed [1]; Rate 125 g/ha, 0 to 100 scale): 0
- Plant response rating, Chickweed (chickweed [1]; [7]): 30
- Chickweed plant response rating (chickweed [1]; [8]): 0
- Plant response rating, Redroot pigweed (redroot pigweed [2]; Rate 62 g/ha, 0 to 100 scale): 30
- Plant response rating, Redroot pigweed (redroot pigweed [2]; Rate 125 g/ha, 0 to 100 scale): 20
- Plant response rating, Redroot pigweed (redroot pigweed [2]; [7]): 50
- Redroot pigweed plant response rating (redroot pigweed [2]; [8]): 10
- Plant response rating, Sugar beet (sugar beet; Rate 62 g/ha, 0 to 100 scale): 0
- Plant response rating, Sugar beet (sugar beet; Rate 125 g/ha, 0 to 100 scale): 20
- Plant response rating, Sugar beet (sugar beet; [7]): 40
- Sugar beet plant response rating (sugar beet; [8]): 30
- Plant response rating, Sunflower (sunflower; Rate 62 g/ha, 0 to 100 scale): 0
- Plant response rating, Sunflower (sunflower; Rate 125 g/ha, 0 to 100 scale): 40
- Plant response rating, Sunflower (sunflower; [7]): 50
- Sunflower plant response rating (sunflower; [8]): 40
- Plant response rating, Veronica hedera (ivyleaf speedwell; Rate 125 g/ha, 0 to 100 scale): 60
- Veronica hedera plant response rating (ivyleaf speedwell; [8]): 40
- Plant response rating, Veronica hedera (ivyleaf speedwell; [7]): 70
- Plant response rating, Wild mustard (wild mustard; Rate 62 g/ha, 0 to 100 scale): 60
- Plant response rating, Wild mustard (wild mustard; Rate 125 g/ha, 0 to 100 scale): 50
- Plant response rating, Wild mustard (wild mustard; [7]): 60
- Wild mustard plant response rating (wild mustard; [8]): 40
- Plant response rating, Wild oat (wild oat; Rate 62 g/ha, 0 to 100 scale): 20
- Plant response rating, Wild oat (wild oat; Rate 125 g/ha, 0 to 100 scale): 5
- Plant response rating, Wild oat (wild oat; [7]): 10
- Wild oat plant response rating (wild oat; [8]): 0
- Plant response rating, Bermudagrass (bermuda-grass; [5]): 0
- Plant response rating, Bermudagrass (bermuda-grass; [6]): 0
- Plant response rating, Bermudagrass (bermuda-grass; Rate 250 g/ha): 0
- Plant response rating, Bermudagrass (bermuda-grass; Rate 500 g/ha): 35
- Plant response rating, Com. groundsel (common groundsel; [5]): 0
- Plant response rating, Com. groundsel (common groundsel; [6]): 0
- Plant response rating, Com. groundsel (common groundsel; Rate 250 g/ha): 0
- Plant response rating, Com. groundsel (common groundsel; Rate 500 g/ha): 0
- Purple nutsedge plant response rating (purple nutsedge; Rate 64 g/ha): 0
- Purple nutsedge plant response rating (purple nutsedge; Rate 125 g/ha): 0
- Plant response rating, Purple nutsedge (purple nutsedge; Rate 250 g/ha): 0
- Plant response rating, Purple nutsedge (purple nutsedge; Rate 500 g/ha): 35
- Sandbur plant response rating (sandbur; Rate 64 g/ha): 0
- Plant response rating, Sandbur (sandbur; Rate 250 g/ha): 85
- Plant response rating, Sandbur (sandbur; Rate 500 g/ha): 80
- Tall Mallow plant response rating (tall mallow; Rate 64 g/ha): 0
- Tall Mallow plant response rating (tall mallow; Rate 125 g/ha): 0
- Plant response rating, Tall Mallow (tall mallow; Rate 250 g/ha): 0
- Plant response rating, Tall Mallow (tall mallow; Rate 500 g/ha): 50
- Plant response rating, Chickweed (chickweed [3]; [9]): 30
- Chickweed plant response rating (0 to 100 scale) (chickweed [3]; Rate 250 g/ha): 80
- Plant response rating, Chickweed (chickweed [3]; [10]): 70
- Plant response rating, Kochia (kochia; [9]): 0
- Kochia plant response rating (0 to 100 scale) (kochia; Rate 250 g/ha): 50
- Plant response rating, Kochia (kochia; [10]): 75
- Plant response rating Lambsquarters (lambsquarters; [9]): 100
- Lambsquarters plant response rating (0 to 100 scale) (lambsquarters; Rate 250 g/ha): 100
- Plant response rating Lambsquarters (lambsquarters; [10]): 100
- Plant response rating, Redroot pigweed (redroot pigweed [4]; [9]): 70
- Redroot pigweed plant response rating (0 to 100 scale) (redroot pigweed [4]; Rate 250 g/ha): 100
- Plant response rating, Redroot pigweed (redroot pigweed [4]; [10]): 100
- Plant response rating, Scentless chamo (scentless chamomile; [9]): 15
- Scentless chamo plant response rating (0 to 100 scale) (scentless chamomile; Rate 250 g/ha): 100
- Plant response rating, Scentless chamo (scentless chamomile; [10]): 80
- Plant response rating, Spring Barley (spring barley; [9]): 20
- Spring Barley plant response rating (0 to 100 scale) (spring barley; Rate 250 g/ha): 10
- Plant response rating, Spring Barley (spring barley; [10]): 90
- Plant response rating, Spring Wheat (spring wheat; [9]): 50
- Spring Wheat plant response rating (0 to 100 scale) (spring wheat; Rate 250 g/ha): 80
- Plant response rating, Spring Wheat (spring wheat; [10]): 100

Compound: CC(C)N(C(=O)n1oc(=O)n(C(C)C)c1=O)c1ccc(F)cc1F [Compound 109]
- Plant response rating, Blackgrass (blackgrass; Rate 125 g/ha, 0 to 100 scale): 30
- Plant response rating, Blackgrass (blackgrass; [11]): 10
- Plant response rating, Blackgrass (blackgrass; [7]): 70
- Plant response rating, Chickweed (chickweed [1]; Rate 125 g/ha, 0 to 100 scale): 0
- Plant response rating, Chickweed (chickweed [1]; [11]): 0
- Plant response rating, Chickweed (chickweed [1]; [7]): 10
- Plant response rating, Redroot pigweed (redroot pigweed [2]; Rate 125 g/ha, 0 to 100 scale): 20
- Plant response rating, Redroot pigweed (redroot pigweed [2]; [11]): 15
- Plant response rating, Redroot pigweed (redroot pigweed [2]; [7]): 15
- Plant response rating, Sugar beet (sugar beet; Rate 125 g/ha, 0 to 100 scale): 30
- Plant response rating, Sugar beet (sugar beet; [11]): 35
- Plant response rating, Sugar beet (sugar beet; [7]): 30
- Plant response rating, Sunflower (sunflower; Rate 125 g/ha, 0 to 100 scale): 30
- Plant response rating, Sunflower (sunflower; [11]): 30
- Plant response rating, Sunflower (sunflower; [7]): 40
- Plant response rating, Veronica hedera (ivyleaf speedwell; Rate 125 g/ha, 0 to 100 scale): 20
- Plant response rating, Veronica hedera (ivyleaf speedwell; [11]): 50
- Plant response rating, Veronica hedera (ivyleaf speedwell; [7]): 70
- Plant response rating, Wild mustard (wild mustard; Rate 125 g/ha, 0 to 100 scale): 40
- Plant response rating, Wild mustard (wild mustard; [11]): 50
- Plant response rating, Wild mustard (wild mustard; [7]): 20
- Plant response rating, Wild oat (wild oat; Rate 125 g/ha, 0 to 100 scale): 0
- Plant response rating, Wild oat (wild oat; [11]): 0
- Plant response rating, Wild oat (wild oat; [7]): 10
- Plant response rating, Chickweed (chickweed [3]; [9]): 40
- Plant response rating, Chickweed (chickweed [3]; [10]): 100
- Plant response rating, Kochia (kochia; [9]): 0
- Plant response rating, Kochia (kochia; Rate 250 g/ha, 0 to 100 scale): 50
- Plant response rating, Kochia (kochia; [10]): 100
- Plant response rating Lambsquarters (lambsquarters; [9]): 60
- Plant response rating Lambsquarters (lambsquarters; Rate 250 g/ha, 0 to 100 scale): 100
- Plant response rating Lambsquarters (lambsquarters; [10]): 100
- Plant response rating, Redroot pigweed (redroot pigweed [4]; [9]): 70
- Plant response rating, Redroot pigweed (redroot pigweed [4]; Rate 250 g/ha, 0 to 100 scale): 100
- Plant response rating, Redroot pigweed (redroot pigweed [4]; [10]): 100
- Plant response rating, Scentless chamo (scentless chamomile; [9]): 0
- Plant response rating, Scentless chamo (scentless chamomile; Rate 250 g/ha, 0 to 100 scale): 30
- Plant response rating, Scentless chamo (scentless chamomile; [10]): 30
- Plant response rating, Spring Barley (spring barley; [9]): 5
- Plant response rating, Spring Barley (spring barley; Rate 250 g/ha, 0 to 100 scale): 20
- Plant response rating, Spring Barley (spring barley; [10]): 50
- Plant response rating, Spring Wheat (spring wheat; [9]): 20
- Plant response rating, Spring Wheat (spring wheat; Rate 250 g/ha, 0 to 100 scale): 40
- Plant response rating, Spring Wheat (spring wheat; [10]): 50
